Reference: patent US7045653B2, “Pharmaceuticals” (Pfizer, Inc., priority 2003, dated 2006)

Columns and labels:
[1] = molecular target: T1, NEP (EC.3.4.24.11) from human kidney (Homo sapiens, UniProt P08473); experiment: IC50 against NEP; format: biochemical
T1 construct: determined using NEP (EC.3.4.24.11) from human kidney; from tissue; host or cells: human kidney
Procedure: IC50 values of the compounds of the invention against NEP and ACE were determined using methods described in published patent application EP1097719-A1, paragraphs [0368] to [0376]. The IC50 values presented below were determined using NEP (EC.3.4.24.11) from human kidney.

[2] = test system: patients with essential hypertension; conditions: 24 black patients with essential hypertension; cited from earlier work
[3] = test system: hypertensive patients; conditions: added to the ACE inhibitor lisinopril; 37 hypertensive patients; cited from earlier work
[4] = test system: hypertensive rats; conditions: cited from earlier work

T1 sequence (P08473 whole entry): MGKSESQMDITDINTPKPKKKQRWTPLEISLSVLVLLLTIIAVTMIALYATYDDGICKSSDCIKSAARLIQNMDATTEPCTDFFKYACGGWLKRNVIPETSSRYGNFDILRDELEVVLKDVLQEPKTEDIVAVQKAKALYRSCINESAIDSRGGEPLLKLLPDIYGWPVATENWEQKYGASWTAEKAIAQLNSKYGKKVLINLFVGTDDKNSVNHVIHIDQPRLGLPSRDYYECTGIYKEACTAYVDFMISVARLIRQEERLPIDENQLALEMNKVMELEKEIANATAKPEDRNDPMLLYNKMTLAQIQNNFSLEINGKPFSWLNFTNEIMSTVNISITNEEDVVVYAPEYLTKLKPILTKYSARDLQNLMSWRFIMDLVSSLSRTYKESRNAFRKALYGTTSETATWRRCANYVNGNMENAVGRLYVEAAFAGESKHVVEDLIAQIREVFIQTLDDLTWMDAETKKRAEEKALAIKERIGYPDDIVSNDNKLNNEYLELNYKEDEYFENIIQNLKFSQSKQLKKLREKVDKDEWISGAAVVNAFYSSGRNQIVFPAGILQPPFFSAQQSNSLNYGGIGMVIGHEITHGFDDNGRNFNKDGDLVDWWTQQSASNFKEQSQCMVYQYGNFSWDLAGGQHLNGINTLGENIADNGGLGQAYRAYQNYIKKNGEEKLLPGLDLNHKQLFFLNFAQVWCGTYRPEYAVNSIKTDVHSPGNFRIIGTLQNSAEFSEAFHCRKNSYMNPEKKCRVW

| Compound | IC50 [1] [nM] | also measured |
| --- | --- | --- |
| COCC[C@H](CC1(C(=O)N[C@@H](COCc2ccc(Cl)cc2)CC(=O)O)CCCC1)C(=O)O [Example 16, (2S)-2-[(1-{[((1R)-2-Carboxy-1-{[(4-chlorobenzyl)oxy]methyl}ethyl)amino]-carbonyl}cyclopentyl)methyl]-4-methoxybutanoic Acid] | 8.2 |  |
| CCC[C@H](CC1(C(=O)N[C@@H](CCOc2ccc(Cl)cc2)CC(=O)O)CCCC1)C(=O)O [Example 41, (3S)-3-[({1-[(2R)-2-Carboxypentyl]cyclopentyl}carbonyl)amino]-5-(4-chlorophenoxy)pentanoic Acid] | 6.3 |  |
| COCC[C@H](CC1(C(=O)N[C@@H](CCOc2ccc(Cl)cc2)CC(=O)O)CCCC1)C(=O)O [Example 48, (3S)-3-[({1-[(2S)-2-Carboxy-4-methoxybutyl]cyclopentyl}carbonyl)amino]-5-(4-chlorophenoxy)pentanoic Acid] | 2.4 |  |
| COCC[C@H](CC1(C(=O)N[C@@H](CCCc2ccc(Cl)cc2)CC(=O)O)CCCC1)C(=O)O [Example 53, (3S)-3-[({1-[(2S)-2-carboxy-4-methoxybutyl]cyclopentyl}carbonyl)amino]-6-(4-chlorophenyl)hexanoic Acid] | 0.7 |  |
| COCC[C@H](CC1(C(=O)N[C@@H](CCCc2ccc(OC)cc2)CC(=O)O)CCCC1)C(=O)O [Example 54, (3S)-3-[({1-[(2S)-2-carboxy-4-methoxybutyl]cyclopentyl}carbonyl)amino]-6-(4-methoxyphenyl)hexanoic Acid] | 4.7 |  |
| CC1(C)OCC(COC(=O)C(Cc2ccccc2)N[C@@H](Cc2ccccc2)C(=O)NCCC(=O)O)O1 (some centres unmarked) [SCH34826] |  | supine blood pressure [2]: significantly lowered supine blood pressure |
| COCCOC[C@H](CC1(C(=O)N[C@H]2CC[C@@H](C(=O)O)CC2)CCCC1)C(=O)Oc1ccc2c(c1)CCC2 [candoxatril] |  | supine and erect blood pressure [3]: marked reduction in both supine and erect blood pressure |
| COCCOC[C@H](CC1(C(=O)N[C@H]2CC[C@@H](C(=O)O)CC2)CCCC1)C(=O)O [candoxatrilat] |  | systolic blood pressure [4]: lowers systolic blood pressure |
